The nature of data set [1]: stability of 5 in plasma (HPLC). The note with it: murine plasma at 37° C. It is filed as in vitro ADME. As to the method:
Compound 5 was prepared from the commercially available dye IR-783, which is known to produce a strong photoacoustic signal, in only two steps. The first step involved the preparation of the IR-783-aldehyde 3 which was done successfully using a Suzuki-Miyaura coupling between 1 and 2 in the presence of Pd(PPh3)4 and Cs2CO3. A significant number of different catalysts, bases and reaction conditions were screened to maximize the yield of 3 (96%). The aldehyde was subsequently coupled to tetrazine 4, prepared using a literature procedure,^14 to form the hydrazone 5. Following characterization by nuclear magnetic resonance (NMR) spectroscopy, high resolution mass spectrometry (HRMS) and high performance liquid chromatography (HPLC), the stability of 5 in plasma was evaluated.

Data set [2] can be described thus: solubility / formulation concentration in 10% ethanol in saline. It is filed as physicochemical. The note with it: aqueous with cosolvent or surfactant or cyclodextrin, read-out: concentration formulated (soluble). As to the method: Prior to developing and testing a targeted derivative, in vivo imaging studies were performed with 5 and 143B human osteosarcoma xenografts. Compound 5 was soluble in 10% ethanol in saline and formulated at a concentration of 5 mg mL^−1, which conveniently is higher than what can be achieved for ICG (1 mg mL^−1). Prior to injection, tumors were imaged in order to separate the signals arising from oxygenated and deoxygenated hemoglobin, and 5, which are shown in red, blue and green respectively in color images of FIG. 8. Following administration of 200 μL of 5 (1 mg), signal arising from 5 was clearly visible in the tumor as early as 1 hour post-injection (FIG. 8, upper right image). Mice were sacrificed and the tumors were imaged ex vivo (FIG. 8, lower left image) where uptake of the dye within the tumor was clearly evident.

The test system of data set [3] is 143B human osteosarcoma xenografts. The data set can be described thus: in vivo photoacoustic imaging of tumor xenografts. The note with it: 1 hour post injection versus background before injection; 200 μL of 5 (1 mg). Details: species or system BALB/c nu/nu mice. As to the method: Red in color images=oxyhemoglobin, Blue in color images=deoxyhemoglobin and Green in color images=the dye-tetrazine conjugate according to an embodiment of the present application. The dashed white lines outline the tumor.
Female BALB/c […] mice (Charles River Laboratories, Kingston, N.Y.) at 4-6 weeks of age were sterile housed and maintained at 24° C. with a 12 h light/dark cycle and were provided autoclaved food and water ad libitum. All procedures were conducted according to the guidelines of the Committee for Research and Ethical Issues of the International Association for the Study of Pain, and guidelines established by the Canadian Council on Animal Care and the McMaster University Animal Research Ethics Board. Female 10-11 week old BALB/c nu/nu mice (Charles River Laboratories, Kingston, N.Y.) were injected with 2.0×10^6 143 B cells in Matrigel:Dulbecco's phosphate-buffered saline (DPBS) (1:1) subcutaneously into the right flank. Photoacoustic studies were performed 10 days following tumor inoculation.
Photoacoustic imaging was performed using Vevo LAZR-X (FUJIFILM VisualSonics Inc., Toronto, ON, Canada) Imaging system equipped with a 680-970 nm laser. Mice were anaesthetized with isofluorane and set up on a platform that monitored the respiration rate and the heart rate of the mouse. The hair on the hindlimb was removed while the mouse was anaesthetized. […]

Data set [4] has as its system sites of high calcium accretion. The data set can be described thus: in vivo photoacoustic imaging of the knee joint (calcium accretion). More on the design: species or system Balb/c mice. The note with it: for photoacoustic signal in the knee (or shoulder) joints: in vivo, 1 hour post-injection. As to the method: The white arrows indicate the knee joint and light grey arrows indicate blood vessels.
Photoacoustic imaging was performed using Vevo LAZR-X (FUJIFILM VisualSonics Inc., Toronto, ON, Canada) Imaging system equipped with a 680-970 nm laser. Mice were anaesthetized with isofluorane and set up on a platform that monitored the respiration rate and the heart rate of the mouse. The hair on the hindlimb was removed while the mouse was anaesthetized. A 30-MHz, linear array ultrasound transducer with integrated fiber optic light delivery (LZ-400 and MX-400, FUJIFILM VisualSonics, Inc.) was positioned laterally overtop the hindlimb knee joint. The integrated fiber bundle delivered 15 to 20 mJ/cm^2 of light to the hindlimb of the mouse.
There are a number of TCO-derived molecules, including antibodies and small molecules, that are available for use as targeting vectors.^16,17,18,19 For a proof of concept study, compound 5 was combined with a TCO-derived bisphosphonate (TCO-BP (6)). TCO-BP has been used to target radiolabeled tetrazines to sites of high calcium accretion. Conveniently, the compound allows testing to be performed in inexpensive healthy mouse models since tetrazine derivatives coupled to TCO-BP should localize to elbow and knee joints where there is elevated turnover of calcium.^16,20,21 Compound 7 was prepared by mixing compounds 5 and 6 at room temperature for 10 min in quantitative yield; highlighting the ease with which new photoacoustic imaging agents can be prepared using this approach.
For in vivo studies, a group of Balb/c mice were administered the parent tetrazine 5 and a second group received the bisphosphonate derivative 7.

For data set [5], the target named is T1, bovine serum albumin (BSA) (Bos taurus, UniProt P02769).
T1 construct: purchased Sigma-Aldrich
T1 sequence (P02769 25-607): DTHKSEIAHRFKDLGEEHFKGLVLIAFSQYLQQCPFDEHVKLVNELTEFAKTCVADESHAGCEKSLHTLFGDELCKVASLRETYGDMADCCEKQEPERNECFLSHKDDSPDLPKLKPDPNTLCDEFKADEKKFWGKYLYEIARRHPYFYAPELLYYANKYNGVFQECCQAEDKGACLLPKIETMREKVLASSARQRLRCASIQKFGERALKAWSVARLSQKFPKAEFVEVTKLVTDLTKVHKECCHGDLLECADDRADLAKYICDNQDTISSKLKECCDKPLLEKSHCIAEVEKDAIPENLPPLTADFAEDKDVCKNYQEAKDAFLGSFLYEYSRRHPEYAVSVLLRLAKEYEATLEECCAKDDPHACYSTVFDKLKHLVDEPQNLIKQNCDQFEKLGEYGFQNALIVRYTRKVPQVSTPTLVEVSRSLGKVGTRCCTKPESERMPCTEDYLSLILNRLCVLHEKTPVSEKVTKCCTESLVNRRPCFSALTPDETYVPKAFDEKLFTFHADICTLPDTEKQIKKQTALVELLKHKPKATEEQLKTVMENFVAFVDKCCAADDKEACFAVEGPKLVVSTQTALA
The data set can be described thus: preliminary albumin binding study (absorbance and emission with BSA). The note with it: absorbance and emission of 5 with varying concentrations of BSA. The method, then:
When experiments were performed at high dye concentrations, aggregation completely quenches the fluorescence signal, which can be restored through the addition of albumin.

A short description of data set [6]: biodistribution study (gamma counting of tissues and fluids). Format: in vivo, BALB/c mice. As to the method:
FIG. 11 is a plot showing biodistribution data for selected fluids and tissues for TCO-BP labeled with ^99mTc and coupled to a dye-tetrazine conjugate according to an embodiment of the present application. Experiments were performed using Balb/c mice (n=3 per time point) and tissues and fluids were collected at 1, 3, 6, and 24 h post administration. Data are expressed as the mean percent injected dose per gram (% ID g−1)±SEM.
(upper plot) and fluorescence spectra and intensity data for blood samples (n=3 for each time point) following the administration of TCO-BP labeled with ^99mTc and coupled to a dye-tetrazine conjugate according to an embodiment of the present application taken at 1, 3, 6, and 24 h p.i. (lower plot).
Biodistribution studies were performed using female BALB/c mice (Charles River, Kingston, N.Y.) at the indicated time points. The mice were administered the agents via tail vein injection with the final volume not exceeding 200 μL. A 5 mg/mL solution of compound 9 (see Scheme 2, below) in 10% ethanol in saline was administered at a dose of 20 mg/kg to all mice (approximately 518 kBq of 9). For all studies, at 1, 3, 6, or 24 h post-injection of the labeled compound, the animals were euthanized by cervical dislocation. Fluids, bone (knee and shoulder), and select tissues were collected, weighed, and counted in a PerkinElmer Wizard 1470 automatic gamma counter. Decay correction was used to normalize organ activity measurements to time of dose preparation for data calculations. Data is expressed as percent injected dose per gram tissue or fluid (% ID/g) or percent injected dose per organ (% ID/O).
Mice were administered 9 (518 kBq) and sacrificed at […] post injection where fluids, bone (knee, shoulder), and other key tissues were collected, weighed, and counted in a gamma counter. The resulting data is shown in FIG. 11 and expressed as percent injected dose per gram of tissue or fluid (% ID g^−1).

A further data set deals with plasma proteins. The data set can be described thus: plasma binding study. Format: in vitro ADME. The note with it: for Pellet: activity in protein pellet; for Supernatant: activity in supernatant. The text has this: FIG. 13 is a plot showing the results of a plasma binding study of TCO-BP labeled with ^99mTc and coupled to a dye-tetrazine conjugate according to an embodiment of the present application. […]

The conditions of data set [7]: comparison value for ICG; cited from earlier work.

In brackets after ≈: the same amount, converted by molar mass.

For the molecule `CC1(C)C(/C=C/C2=C(c3ccc(/C=N/Nc4ccc(C(=O)NCc5ccc(-c6nncnn6)cc5)cn4)cc3)C(=C/C=C3\N(CCCCS(=O)(=O)[O-])c4ccccc4C3(C)C)/CCC2)=[N+](CCCCS(=O)(=O)O)c2ccccc21` [Compound 5], in data set [1] (24 h), the “reactivity of the tetrazine towards TCO-derivatives after plasma incubation” value was “remained reactive towards trans-cyclooctene (TCO)-derivatives”. Further, the “stability in plasma (degradation)” value in data set [1] (out to 24 h) is on record as “no signs of degradation”. The solubility in data set [2] came to 5 mg/mL (≈ 4.54 mM). Besides, the “increase in signal intensity in the tumor” value in data set [3] is given as 2.3 ×. Moreover, the “photoacoustic signal in the knee (or shoulder) joints” value in data set [4] was “did not show any significant signal”. Moreover, in data set [5], the albumin binding entry is given as “dye binding to a hydrophobic binding site of albumin”.

With `CC1(C)C(/C=C/C2=C(c3ccc(/C=N/Nc4ccc(C(=O)NCc5ccc(C6=NNC=C7CCC(OC(=O)NCCCC(O)(P(=O)(O)O)P(=O)(O)O)CCCC76)cc5)cn4)cc3)C(=C/C=C3\N(CCCCS(=O)(=O)[O-])c4ccccc4C3(C)C)/CCC2)=[N+](CCCCS(=O)(=O)O)c2ccccc21` (centres unmarked) [Compound 7], in data set [4] (ex vivo leg after 1 hour post-injection imaging), the “uptake in the leg, images ex vivo” value was “intense uptake”. Also, the “photoacoustic signal in the knee (or shoulder) joints” value in data set [4] is reported as “significant signal”.

`CC1(C)C(/C=C/C2=C(c3ccc(/C=N/Nc4ccc(C(=O)NCc5ccc(C6=NNC=C7CCC(OC(=O)NCCCC8(O)P(=O)(O)[O][Tc]9([OH])([OH])([O]P(=O)(O)C(O)(CCCNC(=O)OC%10CC/C=C/CCC%10)P(=O)(O)[O]9)[O]P8(=O)O)CCCC76)cc5)cn4)cc3)C(=C/C=C3\N(CCCCS(=O)(=O)[O-])c4ccccc4C3(C)C)/CCC2)=[N+](CCCCS(=O)(=O)[O][Na])c2ccccc21` (centres unmarked) [Compound 9]: the results for the “blood level relative to [99mTc]Tc-TCO-BP alone” value in data set [6] (1 h) and in data set [6] (6 h) were 20 × and 187 ×, respectively. The “activity in the blood” value in data set [6] (1 h post injection) is given as “over 15 % ID g^−1”. Further, the blood half-life in data set [6] (determined using radioactive counting) was determined as 3.2 h. The Pellet with plasma proteins (0 h) is given as 32.79; in the data set on plasma proteins (0.5 h), 36.10; in the data set on plasma proteins (1 h) it was 47.53; with plasma proteins (2 h) it was 45.29; in the data set with plasma proteins (3 h), 47.72; in the data set on plasma proteins (4 h) it was 46.88. Besides, the Pellet in the data set on plasma proteins (6 h) turned out to be 47.83. For the same molecule, the Supernatant with plasma proteins (0 h) is listed as 52.00; in the data set on plasma proteins (0.5 h) it was 53.44; with plasma proteins (1 h), 47.27; in the data set with plasma proteins (2 h), 49.35; in the data set on plasma proteins (3 h), 46.82; with plasma proteins (4 h), 47.42. Moreover, the Supernatant with plasma proteins (6 h) came to 47.46. Moreover, in the data set on plasma proteins (after 1 hour), the “activity in the supernatant” value amounted to 50%. For the same molecule, in the data set on plasma proteins (after 1 hour), the “activity present in the pellet containing the proteins” value was 50%.

Turning to `CC1(C)C(/C=C/C=C/C=C/C=C2\N(CCCCS(=O)(=O)O)c3ccc4ccccc4c3C2(C)C)=[N+](CCCCS(=O)(=O)[O-])c2ccc3ccccc3c21` [ICG, indocyanine green], the “concentration that can be achieved” value in data set [7] was 1000 µg/mL.
